The source of these data is ChEMBL document CHEMBL1153781, “Prediction of volume of distribution values in human using immobilized artificial membrane partitioning coefficients, the fraction of compound ionized and plasma protein binding data” (Eur J Med Chem, 2009).

One series relates to Plasma.
Assay: not given
Particulars: human.
In turn, `COc1cc(Cc2cnc(N)nc2N)cc(OC)c1OC` [TRIMETHOPRIM] had a fu of 0.63. Consider `CC1(C)S[C@@H]2[C@H](NC(=O)Cc3ccccc3)C(=O)N2[C@H]1C(=O)O` [PENICILLIN G], for which the fu is 0.425.

`NS(=O)(=O)c1cc(C(=O)O)c(NCc2ccco2)cc1Cl` [FUROSEMIDE] gave a fu of 0.03.

As for `O=C(N[C@H](CO)[C@H](O)c1ccc([N+](=O)[O-])cc1)C(Cl)Cl` [CHLORAMPHENICOL], the fu stood at 0.47. As for `CN(C)CCC=C1c2ccccc2CCc2ccccc21` [AMITRIPTYLINE], the fu was 0.06. The same measure, in the same setting: the figure for `O=C(O)Cc1ccccc1Nc1c(Cl)cccc1Cl` [DICLOFENAC] is 0.01; for `CC(C)(C)NCC(O)c1ccc(O)c(CO)c1` (configuration not stated) [ALBUTEROL] it is 0.93. Still for that read-out and setting: the result for `C[C@]12CC[C@@H]3c4ccc(O)cc4CC[C@H]3[C@@H]1CC[C@@H]2O` [ESTRADIOL] reads 0.015; that for `NC(N)=Nc1nc(CSCCC(N)=NS(N)(=O)=O)cs1` [FAMOTIDINE], 0.83; that for `CC(C)NCC(O)COc1ccc(CC(N)=O)cc1` (configuration not stated) [ATENOLOL], 0.91. The same measure, in the same setting: the result for `CC(C)NCC(O)COc1cccc2ccccc12` (configuration not stated) [PROPRANOLOL] reads 0.1. Compound `CC(CN1c2ccccc2Sc2ccccc21)N(C)C` (configuration not stated) [PROMETHAZINE] came in with a fu of 0.07. On the same count and under the same terms, the figure for `CN(C)CCC(c1ccc(Cl)cc1)c1ccccn1` (configuration not stated) [CHLORPHENIRAMINE] is 0.3; for `COc1ccc2cc([C@H](C)C(=O)O)ccc2c1` [NAPROXEN] it is 0.01.

Regarding `CN1CC[C@]23c4c5ccc(O)c4O[C@H]2[C@@H](O)C=C[C@H]3[C@H]1C5` [MORPHINE], the fu is listed as 0.61. Regarding `C[C@]12C=CC(=O)C=C1CC[C@@H]1[C@@H]2[C@@H](O)C[C@@]2(C)[C@H]1CC[C@]2(O)C(=O)CO` [PREDNISOLONE], the fu worked out at 0.075. The compound `COc1ccc2c3c1O[C@H]1[C@@H](O)C=C[C@H]4[C@@H](C2)N(C)CC[C@@]341` [CODEINE] yielded a fu of 0.93. Compound `CCCNCC(O)COc1ccccc1C(=O)CCc1ccccc1` (configuration not stated) [PROPAFENONE] showed a fu of 0.05. Still for that read-out and setting: the result for `Cc1cnc(NC(=O)C2=C(O)c3ccccc3S(=O)(=O)N2C)s1` [MELOXICAM] reads 0.006; that for `Cc1cc(=O)n(-c2ccccc2)n1C` [ANTIPYRINE], 0.87; that for `CN1C(=O)CN=C(c2ccccc2)c2cc(Cl)ccc21` [DIAZEPAM], 0.02. `CN/C(=N/CCSCc1nc[nH]c1C)NC#N` [CIMETIDINE]: the fu worked out at 0.81. Still for that read-out and setting: the result for `Clc1cccc(Cl)c1N=C1NCCN1` [CLONIDINE] reads 0.8; that for `C[C@]12C=CC(=O)C=C1CC[C@@H]1[C@@H]2C(=O)C[C@@]2(C)[C@H]1CC[C@]2(O)C(=O)CO` [PREDNISONE], 0.25; that for `CC(=O)Nc1ccc(O)cc1` [ACETAMINOPHEN], 1. On to `C[C@]12CCC(=O)C=C1CC[C@@H]1[C@@H]2[C@@H](O)C[C@@]2(C)[C@H]1CC[C@]2(O)C(=O)CO` [HYDROCORTISONE], for which the fu was 0.09.

Test system in another series: not listed separately
As to the kind of experiment: clinical. The settings on record: human, in vivo.
For the compound `CCC(C)(C)C(=O)O[C@H]1C[C@@H](C)C=C2C=C[C@H](C)[C@H](CC[C@@H]3C[C@@H](O)CC(=O)O3)[C@H]21` [SIMVASTATIN], the volume of distribution (Vd) came out at 0.98 L/kg.

`CC(C(=O)O)c1cccc(C(=O)c2ccccc2)c1` (configuration not stated) [KETOPROFEN]: the Vd turned out to be 0.15 L/kg. The same measure, in the same setting: the figure for `CCCCNC(=O)NS(=O)(=O)c1ccc(C)cc1` [TOLBUTAMIDE] is 0.14 L/kg; for `CCC1(CCC(C)C)C(=O)NC(=O)NC1=O` [AMOBARBITAL] it is 1.05 L/kg. Still for that read-out and setting: the result for `C[C@H]1O[C@@H](O[C@H]2[C@@H](O)C[C@H](O[C@H]3[C@@H](O)C[C@H](O[C@H]4CC[C@@]5(C)[C@H](CC[C@@H]6[C@@H]5C[C@@H](O)[C@]5(C)[C@@H](C7=CC(=O)OC7)CC[C@]65O)C4)O[C@@H]3C)O[C@@H]2C)C[C@H](O)[C@@H]1O` [DIGOXIN] reads 3.12 L/kg; that for `O=C(O)CCCc1ccc(N(CCCl)CCCl)cc1` [CHLORAMBUCIL], 0.29 L/kg.

For orientation: Vd means the apparent volume that relates the amount in the body to the concentration in plasma or blood. A lower Vd goes with little distribution into tissue.
